From article PMC8506265 (Bioorganic & medicinal chemistry, 2021)

Tests used:
[1] = target: T1, human CB1 (Homo sapiens, UniProt P21554); test: [35S]GTPγS binding assay, hCB1 HEK293 membranes; type: biochemical
[2] = target: T1, human CB1; test: BRET CAMYEL cAMP assay in HEK293 3HA-hCB1 cells; type: cell-based
[3] = target: T1, human CB1; test: hCB1 calcium mobilization assay
[4] = target: T1, human CB1; type: biochemical; conditions: operational model of allosterism; probe CP55,940

T1 sequence (P21554 whole entry): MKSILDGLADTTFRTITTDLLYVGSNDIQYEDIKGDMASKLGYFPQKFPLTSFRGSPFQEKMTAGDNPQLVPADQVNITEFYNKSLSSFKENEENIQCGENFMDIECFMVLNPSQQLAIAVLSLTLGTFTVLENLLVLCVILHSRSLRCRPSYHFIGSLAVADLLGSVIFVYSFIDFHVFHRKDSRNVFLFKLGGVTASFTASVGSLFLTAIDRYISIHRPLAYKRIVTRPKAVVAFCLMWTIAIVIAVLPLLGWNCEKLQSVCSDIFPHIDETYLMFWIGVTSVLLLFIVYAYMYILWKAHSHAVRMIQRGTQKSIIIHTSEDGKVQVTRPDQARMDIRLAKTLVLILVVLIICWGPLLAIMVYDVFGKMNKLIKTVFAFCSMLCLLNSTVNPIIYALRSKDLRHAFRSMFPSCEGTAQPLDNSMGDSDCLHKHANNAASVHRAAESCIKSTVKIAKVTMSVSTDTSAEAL

Cc1ccc(CCNC(=O)Nc2ccc(Cl)cc2)o1 [Compound 26, 1‐(4‐Chlorophenyl)‐3‐[2‐(5‐methylfuran‐2‐yl)ethyl]urea]
IC50 [1]: 12.6 µM
IC50 [2]: 3.98 µM
potency in the cAMP assay [2]: low micromolar range
IC50 [3]: 0.251 µM

O=C(Nc1ccc(Cl)cc1)NC1(Cc2ccccc2)CC1 [Compound 19, 1-(1-Benzylcyclopropyl)-3-(4-chlorophenyl)urea]
IC50 [3]: > 10 µM

CN(C)c1ccc(CCNC(=O)Nc2ccc(Cl)cc2)cc1 [Compound 12, 3‐(4‐Chlorophenyl)‐1‐{2‐[4‐(dimethylamino)phenyl]ethyl}-urea]
potency in the cAMP assay [2]: low micromolar range

CC(C)(Cc1ccccc1)NC(=O)Nc1ccc(Cl)cc1 [Compound 16, 1-(4-Chlorophenyl)-3-(2-methyl-1-phenylpropan-2-yl)urea]
IC50 [3]: > 10 µM

CC(C)(CNC(=O)Nc1ccc(Cl)cc1)c1ccccc1 [Compound 15, 1-(4-Chlorophenyl)-3-(2-methyl-2-phenylpropyl)urea]
IC50 [3]: > 10 µM

O=C(NCCc1ccsc1)Nc1ccc(Cl)cc1 [Compound 24, 1-(4-Chlorophenyl)-3-[2-(thiophen-3-yl)ethyl]urea]
IC50 [1]: 7.94 µM
IC50 [3]: 1.58 µM

O=C(NCCc1ccc(N2CCCCC2)cc1)Nc1ccc(Cl)cc1 [Compound 9, 1-(4-Chlorophenyl)-3-{2-[4-(piperidin-1-yl)phenyl]ethyl}-urea]
alpha (binding cooperativity) [4]: 5.1
beta (modification of probe efficacy) [4]: 0.09
logalpha (binding cooperativity) [4]: 0.7 ± 0.1
logbeta (modification of probe efficacy) [4]: −1.1 ± 0.1

O=C(NCc1ccccc1)Nc1ccc(Cl)cc1 [Compound 13, 3‐(4‐Chlorophenyl)‐1‐(3‐phenylmethyl)urea]
IC50 [3]: > 10 µM

O=C(NCCc1cccs1)Nc1ccc(Cl)cc1 [Compound 25, 1-(4-Chlorophenyl)-3-[2-(thiophen-2-yl)ethyl]urea]
IC50 [1]: 7.94 µM
IC50 [3]: 0.794 µM

O=C(NCCc1ccccc1)Nc1ccc(Cl)cc1 [Compound 8, 3‐(4‐Chlorophenyl)‐1‐(2‐phenylethyl)urea]
potency in the cAMP assay [2]: low micromolar range
